Literature values, collected in patent publication US7531581B2, “Method and use of acidified modified polymers to bind biocides in paints” (I-Tech AB, priority 2005, dated 2009).

System: barnacles
Conditions: serotonin antagonists and dopamine agonists

| SMILES | effect on attachment of barnacles |
| --- | --- |
| O=C(c1ccc(F)cc1)C1CCN(CCn2c(=O)[nH]c3ccccc3c2=O)CC1 [Ketanserin] | inhibitory properties |
| CCCN1CCc2cccc3c2[C@H]1Cc1ccc(O)c(O)c1-3 [R (−)-NPA] | inhibitory properties |
| CC(C)C[C@H]1C(=O)N2CCC[C@H]2[C@]2(O)O[C@](NC(=O)[C@@H]3C=C4c5cccc6[nH]c(Br)c(c56)C[C@H]4N(C)C3)(C(C)C)C(=O)N12 [(+)-Bromocriptine] | inhibitory properties |
